Test results: patent US20230331781A1, “PAR4 DERIVED PEPTIDES, ANALOGS AND USES THEREOF” (Yissum Research Development Company of the Hebrew …, priority 2019, published 2023)
“Also recorded” adds a separate entry of the source. Numbered stars: 1 amine (or outer) side, 2 acyl side, 3 side chain; on linkers, the order of the positions; unused ones are H or OH. Bridge positions count the residues as written; N and C are the ends. Square brackets hold non-standard residues; d marks the D form. Ends that are not written are not given here. GlyBU(C4) = Gly building unit (N-alpha-functionalized Gly) carrying a C4 alkyl chain (n = m = 4), bridged through a urea group; CO = O=C([*:1])[*:2]

System: pY-EGFR
Experiment: PAR4 induced EGFR tyrosine phosphorylation, HEK293 cells co-transfected with flg-Par4 and gfp-egfr (Western blot)
Assay type: cell-based, human
Conditions: HEK293 cells co-transfected with hPar4 and egfr; AYPGKF 200 μM; 100 μM; FIG. 13B
Description: FIG. 13A—Activation of PAR4 induces phosphorylation of EGFR. HEK293 cells were co-transfected with 0.4 μg of wt flg-Par4 and 0.8 μg of gfp-egfr. Cells were serum starved over night following AYPGKF PAR4 activation (200 μM) for 5-45 min. Detection by Western blot analyses of pY-EGFR and EGFR was performed using either anti-phospho tyrosine or anti EGFR antibodies respectively. PAR4 activation induces EGFR tyrosine phosphorylation within 15 min. FIG. 13B—Pc(4-4) inhibits EGFR phosphorylation. HEK293 cells were co-transfected with 0.8 μg of wt flg-Par4 and 1 μg of gfp-egfr. Cells were serum starved over night following AYPGKF PAR4 activation (200 μM) for 5-45 min in the presence and absence of PAR4 c(4-4) (100 μM). Detection by Western blot analyses of pEGFR and EGFR was performed using either anti-phospho tyrosine or anti EGFR antibodies (1:1000 dilution) respectively. […] FIG. 13C—PAR4 mutants F347L and D349A abolish pTyr-EGFR. HEK293 cells were transiently co-transfected with either flg-Par4 or flg-Par4D349A or flg-hPar4F347L with egfr1 plasmid. Cells were serum starved over night following AYPGKF PAR4 activation (200 μM) for 5-45 min. Detection by Western blot analyses of pY-EGFR and EGFR was performed using either anti-phospho tyrosine or anti-EGFR antibodies respectively. In the presence of flg-Par4 potent pTyr-EGFR1 is observed within 15′ and 30′ AYPGKF activation. […]

For “Pc(4-4): backbone cyclic analog of Formula I, m=n=4, ring size 30 atoms (S[GlyBU(C4)]EFRDK[GlyBU(C4)]; bridge 2-8 via CO; not fully specified; printed as SZ1EFRDKX3)”, the “inhibition of PAR4 induced pY-EGFR” value was “potent inhibition; also recorded: potently inhibited”.
